Results from patent publication US9955689B2, “Method for promoting plant growth” (SUMITOMO CHEMICAL COMPANY, LIMITED, priority 2012, dated 2018).

These compounds were tested on Nicotiana benthamiana (assay: Test Example 5: growth promotion under low-temperature stress by hydroponics of Nicotiana benthamiana (1 ppm)). Conditions: compound at 1 ppm, 7 days at 1.5±1.0° C. low-temperature stress, then 3 days at 22° C., 5 or greater = growth promotion effect, read-out: value of a relative leaf area (Equation (1), area of green leaf).
Assay type: in vivo
Method: Test Example 5. Test for Evaluating Growth Promotion Under Low-Temperature Stress by Hydroponics of Nicotiana benthamiana
(Cultivation and Compound Treatment)
A DMSO solution, which contained one of the compounds 9, 10, 15, 16, 27 to 29, 31 to 37, 40, 44, 47, 48, 52, 55, 56, 58, 61, 63, 81, 87, 89, 92, 95, 98, 100, 102, 105, 108, 109, 111, 113, and 115 of the present invention at a concentration of 1,000 ppm, was prepared. The DMSO solution of the compound of the present invention was added at a volume ratio of 1/1,000 to the Murashige-Scoog medium of a ½-fold concentration (a medium containing 2.3 g of mixed salts (manufactured by Wako Pure Chemical Industries, Ltd.), 200 mg of Myo-inositol (manufactured by Sigme-Aldrich Co. LLC.), 2 mg of niconitic acid (manufactured by Wako Pure Chemical. Industries, Ltd.), 2 mg of pyridoxine hydrochloride (manufactured by Wako Pure Chemical Industries, Ltd.), 20 mg of thiamine hydrochloride (manufactured by Wako Pure Chemical Industries, Ltd.), 20 g of sucrose (manufactured by Wako Pure Chemical Industries, Ltd.), and 1 g of MES (manufactured by DOJINDO LABORATORIES) respectively per 1 L of water and having pH adjusted to 5.8), thereby preparing a medium containing the compound of the present invention at a concentration of 1 ppm.
Seeds of Nicotiana benthamiana were seeded in the 5 μL of the medium and cultured overnight at 22° C. Thereafter, 45 μL of the medium containing the compound of the present invention at a concentration of 1 ppm was added thereto, and the seeds are cultured for 7 days at 22° C. under the conditions of an illuminance of 4,000 lux, and a day length of 16 hours, and the seedlings raised from the Nicotiana benthamiana were treated with the compound. Moreover, instead of the above medium a test plot, which was obtained by performing the same treatment by using a medium prepared by adding DMSO to the Murashige⋅Scoog medium of ½-fold concentration at a volume ratio of 1/1,000, was used as a control plot not treated with the compound.
(Low-Temperature Stress Treatment)
The seedlings of the Nicotiana benthamiana treated with the compound were subjected to low-temperature treatment by being cultured for 7 days at 1.5±1.0° C., under the conditions of an illuminance of 2,000 lux, and a day length of 16 hours.
The seedlings of the Nicotiana benthamiana having undergone the low-temperature stress treatment were cultured for 3 days at 22° C. under the conditions of an illuminance of 4,000 lux, and a day length of 16 hours. Thereafter, the area of green leaf was quantified by Scanalyzer HTS (manufactured by LemnaTec GmbH). Moreover, the value of the control plot not treated with the compound that had not yet been subjected to the low-temperature stress treatment was measured in the same manner. A value of a relative leaf area was calculated based on the following equation (1), and if the relative value of leaf area was 5 or greater, the compound was evaluated to have a growth promotion effect. As a result of the evaluation, it was confirmed that when the plant was treated with one of the compounds 9, 10, 15, 16, 27 to 29, 31 to 37, 40, 44, 47, 48, 52, 55, 56, 58, 61, 63, 81, 87, 89, 92, 95, 98, 100, 102, 105, 108, 109, 111, 113, and 115 of the present invention at 1 ppm, the value of a relative leaf area was 5 or greater, compared to the area of green leaf of the control plot not treated with compound. Accordingly, it was confirmed that the treatment using the compound of the present invention improve a growth promotion effect. Relative leaf area=100*(a green area of a plot treated with the compound of the present invention minus(−) a green area of a plot not treated with the compound of the present invention)/(a green area of a control plot not treated with the compound of the present invention that had not yet been subjected to low-temperature stress treatment minus(−) a green area of a control plot not treated with the compound of the present invention) Equation (1): […]

| Structure (SMILES) | relative leaf area at 1 ppm [%] |
| --- | --- |
| O=C(O)c1cc2c(Br)cccc2s1 [Present compound 10, 4-bromobenzo[b]thiophene-2-carboxylic acid] | ≥ 5 |
| O=C(O)c1cc2cc(I)ccc2s1 [Present compound 15, 5-iodobenzo[b]thiophene-2-carboxylic acid] | ≥ 5 |
| N#Cc1ccc2sc(C(=O)O)cc2c1 [Present compound 16, 5-cyanobenzo[b]thiophene-2-carboxylic acid] | ≥ 5 |
| Cc1cccc(-c2cccc3cc(C(=O)O)sc23)c1 [Present compound 40, 7-(3-methylphenyl)benzo[b]thiophene-2-carboxylic acid] | ≥ 5 |
| O=C(O)c1cc2cc(-c3ccccn3)ccc2s1 [Present compound 44, 5-(2-pyridyl)benzo[b]thiophene-2-carboxylic acid] | ≥ 5 |
| O=C(O)c1cc2ccc(-c3ccc(C(F)(F)F)nc3)cc2s1 [Present compound 47, 6-(6-trifluoromethyl-3-pyridyl) benzo[b]thiophene-2-caboxylic acid] | ≥ 5 |
| O=C(O)c1cc2cc(-c3ncccn3)ccc2s1 [Present compound 48, 5-(2-pyrimidinyl)benzo[b]thiophene-2-carboxylic acid] | ≥ 5 |
| O=C(O)c1cc2c(C(=O)O)cccc2s1 [Present compound 52, benzo[b]thiophene-2,4-dicarboxylic acid] | ≥ 5 |
| CC(=O)c1ccc2sc(C(=O)O)cc2c1 [Present compound 56, 5-acetylbenzo[b]thiophene-2-carboxylic acid] | ≥ 5 |
| O=C(O)c1cc2cc(C(=O)C(F)(F)F)ccc2s1 [Present compound 58, 5-(trifluoroacetyl)benzo[b]thiophene-2-carboxylic acid] | ≥ 5 |
| Nc1ccc2sc(C(=O)O)cc2c1 [Present compound 61, 5-aminobenzo[b]thiophene-2-carboxylic acid] | ≥ 5 |
| Nc1c(C(=O)O)sc2ccccc12 [Present compound 63, 3-amino-benzo[b]thiophene-2-carboxylic acid] | ≥ 5 |
| COc1cccc2sc(C(=O)O)cc12 [Present compound 81, 4-methoxybenzo[b]thiophene-2-carboxylic acid] | ≥ 5 |
| CC(C)Oc1c(C(=O)O)sc2ccccc12 [Present compound 87, 3-isopropoxybenzo[b]thiophene-2-carboxylic acid] | ≥ 5 |
| O=C(O)c1cc2cc(OC(F)(F)F)ccc2s1 [Present compound 89, 5-trifluoromethoxybenzo[b]thiophene-2-carboxylic acid] | ≥ 5 |
| COc1cccc(COc2ccc3cc(C(=O)O)sc3c2)c1 [Present compound 92, 6-(3-methoxybenzyloxy)benzo[b]thiophene-2-carboxylic acid] | ≥ 5 |
| O=C(O)c1cc2cccc(Oc3ccc(C(F)(F)F)cc3)c2s1 [Present compound 95, 7-(4-trifluoromethylphenoxy)benzo[b]thiophene-2-carboxylic acid] | ≥ 5 |
| O=C(O)c1cc2cc(SC(F)(F)F)ccc2s1 [Present compound 98, 5-(trifluoromethylthio)benzo[b]thiophene-2-carboxylic acid] | ≥ 5 |
| O=C(O)c1cc2cc(S(=O)(=O)C(F)(F)F)ccc2s1 [Present compound 100, 5-(trifluoromethylsulfonyl)benzo[b]thiophene-2-carboxylic acid] | ≥ 5 |
| O=C(O)c1cc2c(Cl)c(Cl)ccc2s1 [Present compound 102, 4,5-dichlorobenzo[b]thiophene-2-carboxylic acid] | ≥ 5 |
| O=C(O)c1sc2ccc(C(F)(F)F)cc2c1Cl [Present compound 105, 3-chloro-5-trifluoromethylbenzo[b]thiophene-2-carboxylic acid] | ≥ 5 |
